Assay results published in patent US20260374739A1, “SMALL MOLECULAR WEIGHT CHEMICAL COMPOUND TO ANTAGONIZE EPH-EPHRIN TETRAMERIZATION AND INHIBIT BIDIRECTIONAL SIGNALING” (THE BOARD OF REGENTS OF THE UNIVERSITY OF TEXAS SYSTEM, priority 2022, published 2026).
Values joined by “and” are separate entries in the source; they are usually repeats but may differ in a detail not shown here. Equal values may be shown once. “Also recorded” adds a separate entry of the source. Read-outs that look alike come from different tables or passages of the source.

What was measured:
[1] = test system: Zymosan-induced mechanical pain in mice; assay: Zymosan inflammatory pain, mechanical; type: in vivo, mouse; conditions: PO; for mechanical pain ratio: vehicle about 3
Procedure: (§1) An alternative and potentially faster pain model using Zymosin (an inflammatory agent like CFA) to induce inflammatory pain was tested. […] Mice were first acclimated to the pain testing set ups and then subjected to baseline mechanical and thermal pain measurements. Early in the morning the following day, the left hind paws were injected subcutaneously with 30 μL of Zymosan (5 mg/ml in PBS; Z4250, Sigma-Aldrich). Two hours after the Zymosan injection, the left hind paws were assessed for thermal pain using Hargreaves device (2-4 hr), and then left paws tested for mechanical pain using VF filaments (4-6 hr), and then again for thermal pain (6-8 hr). Data from two independent experiments were pooled to increase the n values for the three different genotypes. […] Thermal pain increased in all group following Zymosan injury as indicated by a decreased average response time to the infrared heat source in all animals assessed, and the level of pain intensified from the 2-4 hr testing period to the 6-8 hr period.
(§2) Inflammatory pain was induced by subcutaneous injection of 30 μl of 5 mg/ml Zymosan into the right hind paws of 12 wild-type adult male mice (5-6 months age, 129×1/SvJ background) that in previous days were acclimated to the testing chambers and assessed to obtain baseline pain measurements. After 15 min, mice were orally dosed with either vehicle only (97% PBS/3% DMSO) or with 20, 10, or 5 mg/kg of A20 (2×·HCl salt in vehicle), 3 mice for each condition. Two hours after Zymosan injection, the right hind paws were assessed for thermal pain using Hargreaves device (2-4 hr), then mice were orally dosed again with vehicle only or A20 chemicals, and then right paws tested for mechanical pain using VF filaments (4-6 hr), and then again for thermal pain (6-8 hr).
(§3) Inflammatory pain was induced by subcutaneous injection of 30 μl of 5 mg/ml Zymosan into the left hind paws of 9 wild-type adult males (5-6 months age, 129/CD1 mixed background) that in previous days were acclimated to the testing chambers and assessed to obtain baseline pain measurements. After 15 min, mice were orally dosed with either vehicle only (97% PBS/3% DMSO) or with 20 mg/kg of 3511-I (2×·HCl salt in vehicle), or 20 mg/kg BQPB4 (3×·HCl salt in 97% sunflower seed oil/3% DMSO), 3 mice for each condition. Two hours after Zymosan injection, the left […] hind paws were assessed for mechanical pain using VF filaments (2-4 hr), then mice were orally dosed again with vehicle only or A20 chemicals, and then left hind paws tested for thermal pain using Hargreaves device (4-6 hr), and then again for mechanical pain (6-8 hr).

[2] = test system: Zymosan-induced thermal pain in mice; assay: Zymosan inflammatory pain, thermal; type: in vivo, mouse; conditions: PO; for thermal pain ratio: A20 experiment vehicle close to 6
Procedure: as §1, §2, §3
Inflammatory pain was induced by subcutaneous injection of Zymosan into left hind paws, followed 15 min later with an oral dose of either vehicle or 20, 10, or 5 mg/kg of BQPB4 (3×·HCl salt in 97% sunflower seed oil/3% DMSO). Two hours after Zymosan injection, the left hind paws were assessed for mechanical pain using VF filaments (2-4 hr), then mice were orally dosed again with vehicle or BQPB4 chemical, and then hind paws tested for thermal pain using Hargreaves device (4-6 hr), and then tested again for mechanical pain (6-8 hr). […] Calculation of pain ratios confirmed the significant dose-dependent effects of BQPB4 at blunting thermal pain (FIG. 92B).

[3] = pharmacokinetics, single IP injection; type: in vivo, mouse; design: spinal cord AUC0-t / plasma AUC0-t / brain AUC0-t / liver AUC0-t: unit not given here; conditions: for biodistribution: IP, mice; for plasma AUC0-t: 24 hr; for Cmax / Tmax: mouse; for Cmax: ip, 20 mg/kg
Procedure: Further studies were conducted as in vivo experiments to evaluate the effect of A20 when injected into the mouse. To formulate the compound for intraperitoneal (IP) injection, A20 was tested for solubility in various buffers, pH conditions, and with cyclodextrins (e.g. Captisol). The formulation was prepared by first dissolving A20 powder in DMSO and followed by mixing with sunflower seed oil (SSO) prior to administration (in 6% DMSO/94% SSO). […] PK profiling experiments were then conducted with A20 to determine its absorption, distribution, metabolism, and excretion (ADME) properties. Mice were given a single IP injection of 20 mg/kg A20 and after 10, 30, 90, 180, 360, 960, 1440 min, three animals per time point were sacrificed and tissue was collected and subjected to mass spectrometry.
(§4) A study was conducted with A20 salt dissolved solely in PBS and injected at 20 mg/kg to match the previously described study of the free-base. […] The results from the brain, spinal cord, and liver tissues are particularly outstanding and indicate that significant levels of A20 salt remain even after the final collection at 24 hr time point.

aqueous solubility = type: physicochemical; conditions: for solubility in water: salt forms
Procedure: FIG. 45 depicts tests of salt forms of A20 and A20-1 for aqueous solubility. Compounds were provided to the UT Southwestern PK Core facility and tested for soluble in water. While both are quite soluble, A20 salt was especially so and can be made into a […] solution, whereas A20-I salt can be dissolved into >15% solution.
as §4
To examine the drug-like nature of the disclosed compounds, tests for solubility was conducted.

[4] = water, read-out: aqueous solubility

Compound: Oc1c(Br)cc(CN2CCN(c3ccc(Br)cc3)CC2)c2cccnc12 [Compound 28, 7-bromo-5-((4-(4-bromophenyl)piperazin-1-yl)methyl)quinolin-8-ol]
- mechanical pain [1]: essentially no enhanced mechanical pain sensitivity
- mechanical pain ratio [1]: ~1
- thermal pain ratio [2]: below 2
- thermal pain ([2]; listed as BQPB4): significantly less thermal pain; also recorded: the 20 mg/kg dose produced the strongest and most significant reduction in pain, followed by the 10 mg/kg dose, and then the 5 mg/kg dose

Compound: Oc1c(Br)cc(CN2CCOCC2)c2cccnc12 [Compound 5, 7-bromo-5-(morpholinomethyl)quinolin-8-ol]
- mechanical pain [1]: significant reductions in both mechanical and thermal pain
- mechanical pain ratio [1]: ~1
- biodistribution [3]: distributes to plasma, brain, and spinal cord
- brain AUC0-t ([3]; free base, IP 20 mg/kg): 6,684
- spinal cord AUC0-t ([3]; free base, IP 20 mg/kg): 4,928
- plasma AUC0-t ([3]; free base, IP 20 mg/kg): 14,636
- Cmax ([3]; brain, free base, IP 20 mg/kg, read-out: brain Cmax): 104 ng/mL and 323 nM
- Tmax ([3]; brain, free base, IP 20 mg/kg, read-out: brain time of Cmax (converted)): 10 min
- Cmax ([3]; plasma, free base, IP 20 mg/kg, DMSO/SSO, read-out: plasma Cmax): 0.214 µg/mL
- Cmax ([3]; plasma, free base, IP 20 mg/kg, read-out: plasma Cmax): 0.665 µM
- Tmax ([3]; plasma, free base, IP 20 mg/kg, read-out: plasma time of Cmax (converted)): 10 min
- Cmax ([3]; spinal cord, free base, IP 20 mg/kg, read-out: spinal cord Cmax): 88 ng/mL and 273 nM
- thermal pain [2]: significant reductions in both mechanical and thermal pain
- thermal pain ratio [2]: around 3
- solubility in water (aqueous solubility): extremely soluble in water

Compound: Oc1ccc(CN2CCN(Cc3ccc(Br)cc3)CC2)c2cccnc12 [Compound 42, 5-((4-(4-bromobenzyl)piperazin-1-yl)methyl)quinolin-8-ol]
- biodistribution ([3]; listed as QPB4-Bn): significantly high levels of compound reach intended tissues (i.e., brain, spinal cord, liver, skin) and persist at high concentrations during the 24 hr period

Compound: Oc1c(I)cc(CN2CCOCC2)c2cccnc12 [Compound 8, 4-((8-hydroxy-7-iodoquinolin-1-ium-5-yl)methyl)morpholin-4-ium chloride]
- solubility (aqueous solubility; [4]): > 150 mg/mL

Compound: COc1ccccc1N1CCN(Cc2cc(I)c(O)c3ncccc23)CC1 [Compound 71, 7-iodo-5-((4-(2-methoxyphenyl)piperazin-1-yl)methyl)quinolin-8-ol]
- mechanical pain [1]: somewhat blunted mechanical pain response
- thermal pain [2]: significantly less thermal pain
- thermal pain ratio [2]: ~3

Compound: Oc1c(I)cc(CN2CCOCC2)c2cccnc12 [Compound 7, 7-iodo-5-(morpholinomethyl)quinolin-8-ol]
- solubility in water (aqueous solubility): extremely soluble in water

Compound: Oc1c(Br)cc(CN2CCOCC2)c2cccnc12 [Compound 6, 4-((7-bromo-8-hydroxyquinolin-1-ium-5-yl)methyl)morpholin-4-ium chloride]
- Cmax ([3]; brain, salt in PBS, IP 20 mg/kg, read-out: brain Cmax): 7.03 µM and 2790 ng/mL
- Cmax ([3]; liver, salt in PBS, IP 20 mg/kg, read-out: liver Cmax): 22600 ng/mL and 57 µM
- Cmax ([3]; plasma, salt in PBS, IP 20 mg/kg, read-out: plasma Cmax): 2880 ng/mL and 7.27 µM
- Cmax ([3]; spinal cord, salt in PBS, IP 20 mg/kg, read-out: spinal cord Cmax): 3310 ng/mL and 8.35 µM
- brain AUC0-t ([3]; salt in PBS, IP 20 mg/kg): 136,933
- brain time of Cmax ([3]; salt in PBS, IP 20 mg/kg): 10 min
- liver AUC0-t ([3]; salt in PBS, IP 20 mg/kg): 1,363,490
- plasma time of Cmax ([3]; salt in PBS, IP 20 mg/kg): 10 min
- spinal cord AUC0-t ([3]; salt in PBS, IP 20 mg/kg): 86,044
- plasma AUC0-t ([3]; salt in PBS, IP 20 mg/kg): 81,039
- brain AUC0-t increase over the free-base ([3]; salt vs free-base): > 20 fold
- brain Cmax increase over the free-base ([3]; salt vs free-base): > 26 fold
- plasma AUC0-t increase over the free-base ([3]; salt vs free-base): > 5.5 fold
- plasma Cmax increase over the free-base ([3]; salt vs free-base): > 13 fold
- spinal cord AUC0-t increase over the free-base ([3]; salt vs free-base): > 17 fold
- spinal cord Cmax increase over the free-base ([3]; salt vs free-base): > 37 fold
- solubility (aqueous solubility; water or pbs, aqueous buffer, read-out: solubility in water or PBS): > 50 mg/mL
- solubility (aqueous solubility; [4]): > 1000 mg/mL
